# Results: PubChem BioAssay (NCI)
#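 Test compounds were applied to cells in 96-well plates for 48 hours at 5 doses. TGI denotes the concentration required for complete inhibition of growth.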
# Legend:
# Experiment in all cases: NCI tumour cell line growth inhibition, 48 h
# CAKI-1 renal = test system: CAKI-1 renal
# K-562 leukemia = test system: K-562 leukemia
# ACHN renal = test system: ACHN renal
# MDA-MB-231 breast = test system: MDA-MB-231 breast
# SF-295 CNS = test system: SF-295 CNS
# DU-145 prostate = test system: DU-145 prostate
# HCT-116 colon = test system: HCT-116 colon
# SK-MEL-28 melanoma = test system: SK-MEL-28 melanoma
# HT29 colon = test system: HT29 colon
# OVCAR-3 ovarian = test system: OVCAR-3 ovarian
# UACC-62 melanoma = test system: UACC-62 melanoma
# SN12C renal = test system: SN12C renal
# SK-MEL-2 melanoma = test system: SK-MEL-2 melanoma
# KM12 colon = test system: KM12 colon
# IGROV1 ovarian = test system: IGROV1 ovarian
# NCI-H23 lung = test system: NCI-H23 lung
# OVCAR-5 ovarian = test system: OVCAR-5 ovarian
# A549 NSCLC = test system: A549 NSCLC
# SW-620 colon = test system: SW-620 colon
# MDA-N = test system: MDA-N
# COLO 205 colon = test system: COLO 205 colon
# HCT-15 colon = test system: HCT-15 colon
# CCRF-CEM leukemia = test system: CCRF-CEM leukemia
# RXF 393 renal = test system: RXF 393 renal
# SNB-19 CNS = test system: SNB-19 CNS
# SF-268 CNS = test system: SF-268 CNS
# EKVX NSCLC = test system: EKVX NSCLC
# SK-OV-3 ovarian = test system: SK-OV-3 ovarian
# MCF7 breast = test system: MCF7 breast
# HCC-2998 colon = test system: HCC-2998 colon
# PC-3 prostate = test system: PC-3 prostate
# MDA-MB-435 = test system: MDA-MB-435
# 786-0 renal = test system: 786-0 renal
# U251 CNS = test system: U251 CNS
# BT-549 breast = test system: BT-549 breast
# A498 renal = test system: A498 renal
# T-47D breast = test system: T-47D breast
# HS 578T breast = test system: HS 578T breast
# UACC-257 melanoma = test system: UACC-257 melanoma
# TK-10 renal = test system: TK-10 renal
# SF-539 CNS = test system: SF-539 CNS
# M14 melanoma = test system: M14 melanoma
# OVCAR-8 ovarian = test system: OVCAR-8 ovarian
# SR leukemia = test system: SR leukemia
# UO-31 renal = test system: UO-31 renal
# SK-MEL-5 melanoma = test system: SK-MEL-5 melanoma
# MALME-3M melanoma = test system: MALME-3M melanoma
# LOX IMVI melanoma = test system: LOX IMVI melanoma
# SNB-75 CNS = test system: SNB-75 CNS
# HOP-62 NSCLC = test system: HOP-62 NSCLC
# NCI-H522 lung = test system: NCI-H522 lung
# OVCAR-4 ovarian = test system: OVCAR-4 ovarian
# NCI-H226 lung = test system: NCI-H226 lung
# HL-60(TB) leukemia = test system: HL-60(TB) leukemia
# MOLT-4 leukemia = test system: MOLT-4 leukemia
# NCI-H460 lung = test system: NCI-H460 lung
# RPMI-8226 leukemia = test system: RPMI-8226 leukemia
compound,measurement,setting,value
CN(C)CCNC(=O)c1cnn(C)c1[N+](=O)[O-],TGI,CAKI-1 renal,> 100 µM
same,TGI,K-562 leukemia,> 100 µM
same,TGI,ACHN renal,> 100 µM
same,TGI,MDA-MB-231 breast,> 100 µM
same,TGI,SF-295 CNS,> 100 µM
same,TGI,DU-145 prostate,> 100 µM
same,TGI,HCT-116 colon,> 100 µM
same,TGI,SK-MEL-28 melanoma,> 100 µM
same,TGI,HT29 colon,> 100 µM
same,TGI,OVCAR-3 ovarian,70.6 µM
same,TGI,UACC-62 melanoma,> 100 µM
same,TGI,SN12C renal,> 100 µM
same,TGI,SK-MEL-2 melanoma,> 100 µM
same,TGI,KM12 colon,> 100 µM
same,TGI,IGROV1 ovarian,> 100 µM
same,TGI,NCI-H23 lung,> 100 µM
same,TGI,OVCAR-5 ovarian,> 100 µM
same,TGI,A549 NSCLC,> 100 µM
same,TGI,SW-620 colon,> 100 µM
same,TGI,MDA-N,> 100 µM
same,TGI,COLO 205 colon,47.8 µM
same,TGI,HCT-15 colon,> 100 µM
same,TGI,CCRF-CEM leukemia,> 100 µM
same,TGI,RXF 393 renal,> 100 µM
same,TGI,SNB-19 CNS,> 100 µM
same,TGI,SF-268 CNS,> 100 µM
same,TGI,EKVX NSCLC,> 100 µM
same,TGI,SK-OV-3 ovarian,> 100 µM
same,TGI,MCF7 breast,> 100 µM
same,TGI,HCC-2998 colon,> 100 µM
same,TGI,PC-3 prostate,> 100 µM
same,TGI,MDA-MB-435,> 100 µM
same,TGI,786-0 renal,> 100 µM
same,TGI,U251 CNS,> 100 µM
same,TGI,BT-549 breast,> 100 µM
same,TGI,A498 renal,> 100 µM
same,TGI,T-47D breast,> 100 µM
same,TGI,HS 578T breast,> 100 µM
same,TGI,UACC-257 melanoma,> 100 µM
same,TGI,TK-10 renal,> 100 µM
same,TGI,SF-539 CNS,> 100 µM
same,TGI,M14 melanoma,> 100 µM
same,TGI,OVCAR-8 ovarian,> 100 µM
same,TGI,SR leukemia,> 100 µM
same,TGI,UO-31 renal,> 100 µM
same,TGI,SK-MEL-5 melanoma,> 100 µM
same,TGI,MALME-3M melanoma,36.1 µM
same,TGI,LOX IMVI melanoma,> 100 µM
same,TGI,SNB-75 CNS,> 100 µM
same,TGI,HOP-62 NSCLC,> 100 µM
same,TGI,NCI-H522 lung,> 100 µM
same,TGI,OVCAR-4 ovarian,> 100 µM
same,TGI,NCI-H226 lung,> 100 µM
same,TGI,HL-60(TB) leukemia,> 100 µM
same,TGI,MOLT-4 leukemia,> 100 µM
same,TGI,NCI-H460 lung,> 100 µM
same,TGI,RPMI-8226 leukemia,> 100 µM
